According to US20240317732A1, “A NEW MOLECULAR SCAFFOLD FOR TARGETING HRPN13” (THE UNITED STATES OF AMERICA AS REPRESENTED BY THE …, priority 2021, published 2024):
“Also recorded” adds a separate entry of the source.

Tests used:
HCT116 WT cells = test: MTT cell metabolism / cell viability assay in HCT116 WT; format: cell-based; conditions: read-out: XL5-VHL-2 Sensitivity (IC50, μM) Cell viability assay
Procedure: (§1) Since previous hRpn13-targeting molecules induce apoptosis in multiple myeloma and colon cancer cells we tested whether XL5 restricts the RPMI 8226 multiple myeloma and HCT116 colon cancer cell lines by measuring metabolism with an MTT (3-(4,5-dimethylthiazol-2-yl)-2,5-diphenyltetrazolium bromide) assay. Experiments were also conducted in parallel with a HCT116 colon cancer cell line in which the exon encoding hRpn13 C88 is deleted, named trRpn13; this cell line expresses a truncated hRpn13 protein with a defective Pru and inability to bind the proteasome28. RPMI 8226 and WT (wild-type) or trRpn13 HCT116 cells seeded at 8,000 and 4,000 cells per well were treated with varying concentrations of XL5 extending to 40 μM and compared to cells incubated with equivalent amounts of DMSO vehicle control.
HCT116 WT or trRpn13 cells were seeded at 4,000 cells/well whereas RPMI 8226 cells were seeded at 8,000 cells/well with RPMI 1640 medium (no phenol red, Thermo Fisher Scientific 11835030) containing 2% fetal bovine serum in 96-well plates. Cells were treated with 0.4% DMSO (as a control) and this concentration was maintained with XL5, XL5-PROTACs XL5-VHL, XL5-VHL-2, XL5-CRBN, or XL5-IAP, and E3 ligands VHL-Ac, thalidomide (Selleckchem, catalog NO. S1193), or IAP-Bz at 10 μM, 20 μM, 30 μM or 40 μM concentration. […] Absorbance at 570 nm was measured by using CLARIOstar (BMG LABTECH).

MM.1S cells = test: MTT cell viability assay in MM.1S; format: cell-based; conditions: read-out: XL5-VHL-2 Sensitivity (IC50, μM) Cell viability assay
Procedure: The mass spectra (upper panel) were deconvoluted from the UV peak (lower panel) indicated with a black arrow. […] Viability is calculated as (λ570)sample/(λ570)control×100(%). […] Immunoprobing for cleaved caspase-9 and hRpn13 was done separately with re-probing for β-actin. […] A dashed line indicates the value […].

[1] = tested on: RPMI 8226 trRpn13-MM2 cells; test: MTT cell viability assay in RPMI 8226 trRpn13-MM2; format: cell-based; conditions: RPMI 8226 trRpn13-MM2, 48 hours, compared to WT
Procedure: FIGS. 11A-11C show hRpn13-Pru PROTACs with different linkers restrict cell viability in an hRpn13 Pru-dependent manner. RPMI 8226 WT (darker shades) or trRpn13-MM2 (lighter shades) cells were treated with the indicated concentration of XL5-VHL-2 (FIG. 11A), XL5-VHL-3 (FIG. 11A), XL5-VHL-4 (FIG. 11B) or XL5-VHL-5 (FIG. 11C) for 48 hours and cell metabolism measured by an MTT assay; data represent mean±SD of n=6 biological replicates. Viability is calculated as (λ570)sample/(λ570)control×100(%).

RPMI 8226 cells = test: MTT cell metabolism / cell viability assay in RPMI 8226; format: cell-based
Procedure: as §1
HCT116 WT or trRpn13 cells were seeded at 4,000 cells/well whereas RPMI 8226 cells were seeded at 8,000 cells/well with RPMI 1640 medium (no phenol red, Thermo Fisher Scientific 11835030) containing 2% fetal bovine serum in 96-well plates. Cells were treated with 0.4% DMSO (as a control) and this concentration was maintained with XL5, XL5-PROTACs XL5-VHL, XL5-VHL-2, XL5-CRBN, or XL5-IAP, and E3 ligands VHL-Ac, thalidomide (Selleckchem, catalog NO. S1193), or IAP-Bz at 10 μM, 20 μM, 30 μM or 40 μM concentration. After 48 hours, 0.35 mg/mL MTT was added for 4 hours of incubation. Stop solution (40% DMF, 10% SDS (W/V), 25 mM HCl, 2.5% acetic acid in H2O) was added to the cells and incubated overnight. Absorbance at 570 nm was measured by using CLARIOstar (BMG LABTECH).

hRpn13 / hRpn13-Pru = test: Immunoblot of hRpn13 species in RPMI 8226 cell lysates; format: cell-based, human; conditions: RPMI 8226, 40 μM, 24 hours
Procedure: HCT116 WT, HCT116 trRpn13, RPMI 8226 or 293T cells were collected and washed with PBS followed by lysing in 1% Triton-TBS lysis buffer (50 mM Tris-HCl, pH 7.5, 150 mM NaCl, 1 mM PMSF) supplemented with protease inhibitor cocktail (Roche). Total protein concentration was determined by bicinchoninic acid (Pierce). Protein lysates were prepared in 1χ LDS (ThermoFisher, NP0007) buffer with 100 mM DTT and heating at 70° C. for 10 min, loaded onto 4-12% Bis-Tris polyacrylamide gels (Life Technologies), subjected to SDS-PAGE and transferred to Invitrolon polyvinylidene difluoride membranes (Life Technologies). The membranes were blocked in Tris-buffered saline with 0.1% Tween-20 (TBST) supplemented with 5% skim milk, incubated with primary antibody, washed in TBST, incubated with secondary antibody and washed extensively in TBST. Pierce™ ECL Western Blotting Substrate (32106; Thermo Fisher Scientific) or Amersham™ ECL™ Primer Western Blotting Detection Reagent (cytiva) was used for antibody signal detection.
To test whether the XL5-PROTACs cause ubiquitination and degradation of hRpn13, lysates from RPMI 8226 (FIG. 5C) cells treated with 40 μM XL5 orXL5-PROTAC compared to DMSO vehicle control were immunoprobed for hRpn13 and β-actin (loading control).

RPMI 8226 WT cells = test: Apoptosis by cleaved caspase-9 immunoblot in RPMI 8226 WT; format: cell-based; conditions: 40 μM PROTAC or 20 μM XL5-S2
Procedure: RPMI 8226 WT or trRpn13-MM2 (MM2) cells were treated with 40 μM XL5-VHL-2, 40 μM XL5-VHL-3 or DMSO (vehicle control) and the whole cell extract immunoprobed for hRpn13 or cleaved caspase-9 with β-actin as a loading control. A black asterisk indicates cleaved caspase-9 in the 2-min immunoblot for hRpn13, as hRpn13 was probed following cleaved caspase-9 and without stripping the membrane.
RPMI 8226 WT or trRpn13-MM2 cells were treated with 20 μM XL5-S2 or DMSO (vehicle control) and the whole cell extract immunoprobed for hRpn13 or cleaved caspase-9, with β-actin as a loading control. A black asterisk indicates cleaved caspase-9 in the 5-min immunoblot for hRpn13, as hRpn13 was probed following cleaved caspase-9 and without stripping the membrane.
HCT116 WT, HCT116 trRpn13, RPMI 8226 or 293T cells were collected and washed with PBS followed by lysing in 1% Triton-TBS lysis buffer (50 mM Tris-HCl, pH 7.5, 150 mM NaCl, 1 mM PMSF) supplemented with protease inhibitor cocktail (Roche). Total protein concentration was determined by bicinchoninic acid (Pierce). Protein lysates were prepared in 1χ LDS (ThermoFisher, NP0007) buffer with 100 mM DTT and heating at 70° C. for 10 min, loaded onto 4-12% Bis-Tris polyacrylamide gels (Life Technologies), subjected to SDS-PAGE and transferred to Invitrolon polyvinylidene difluoride membranes (Life Technologies). […]

In the case of `Cc1ncsc1-c1ccc([C@H](C)NC(=O)[C@@H]2C[C@@H](O)CN2C(=O)[C@@H](NC(=O)CCCCc2cn(-c3ccc(C(=O)Nc4cccc(/C=C(\C#N)C(=O)Nc5ccccc5C(=O)O)c4)cc3)nn2)C(C)(C)C)cc1` [XL5-VHL-2], the IC50 (HCT116 WT cells) is reported as 23.6 ± 4.7 µM, the IC50 (MM.1S cells) is reported as 5.9 ± 0.7 µM and the “cell viability (MTT)” value [1] is reported as “loss of activity”. The “metabolic activity / cell viability (MTT)” value (RPMI 8226 cells; RPMI 8226, 48 hours, up to 40 μM) was “hook effect and lost”, the IC50 (RPMI 8226 cells; RPMI 8226, read-out: XL5-VHL-2 Sensitivity (IC50, μM) Cell viability assay) was 4.2 ± 1 µM and the “lower molecular weight hRpn13 species (hRpn13-Pru) level” value (hRpn13 / hRpn13-Pru) was “less hRpn13-Pru loss; also recorded: reduced in abundance”. For the same compound, the “higher molecular weight hRpn13 species characteristic of ubiquitination” value (hRpn13 / hRpn13-Pru; longer exposure) was “increase in higher molecular weight hRpn13 species” and the “apoptosis induction (cleaved caspase-9)” value (RPMI 8226 WT cells) was “poorer induction of cleaved caspase-9”.
